Measured values reported in PubChem BioAssay AID1507 (NMMLSC, 2009).
The source made the active and inactive calls. How the calls were made is not given here.

System: S. aureus strains, alpha hemolysin production inhibition
Test: inhibition of S. aureus alpha hemolysin production, S. aureus quorum sensing inhibitors, NM300, NM400, MRSA3757 (AID 1507)
Conditions: for inhibition: stronger effect = higher value
[1] = hemolysin inhibition, MRSA3757, at 12 µM
[2] = hemolysin inhibition, strain NM400, at 12 µM

Row | SMILES | inhibition (at 6 µM) | inhibition (hemolysin inhibition, strain NM300, at 6 µM) | outcome (at 12 µM) | inhibition [1] | inhibition [2] | inhibition (at 30 µM) | inhibition (hemolysin inhibition, strain NM300, at 30 µM)
1 | CCc1oc2ccccc2c1C(=O)c1cc(Br)c(O)c(Br)c1 | 100% | 100% |  |  |  |  | 
2 | CC1CCCN(C(C(=O)Nc2ccc3c(c2)OCCO3)c2ccccc2)C1 (stereo not given) |  |  | inactive; agr3 active | 20% | 57% |  | 
3 | Cc1c(Cl)cccc1Nc1ccccc1C(=O)O |  |  |  |  |  | 99% | 100%
4 | CC1CCCN(C(C(=O)Nc2ccc3c(c2)OCO3)c2ccccc2)C1 (stereo not given) |  |  | inactive; agr3 active | 15% | 55% |  | 
